Laboratory results taken from patent US20180133327A1, “Cell Penetrating Peptides and Complexes Comprising the Same” (Amal Therapeutics SA, priority 2015, published 2018).

Test system: IFN-γ-producing OVA323-339-specific CD4 T cells
Assay: Vaccination with ZEBRA CPP truncation constructs plus TLR agonist adjuvant, IFN-γ Elispot on spleen cells, CD4
Format: in vivo, mice
Experimental: (§1) Mice were vaccinated three times (wk0, wk2 and wk9) by s.c. injection (right flank) of 10 nmoles of OVACD8CD4 (the cargo without Zebra CPP truncation), Z13OVACD8CD4, Z14OVACD8CD4, Z15OVACD8CD4, Z18OVACD8CD4 and i.m. injection of 50 μg of Hiltonol (right hind leg). One week after the last vaccination, Elispot assay was performed on spleen cells for detecting IFN-y-producing OVA257-264-specific CD8 T cells (A) and OVA323-339-specific CD4 T cells (B). *, p<0.05; **, p<0.01.
as §1, with “Z15OVACD8CD4 or” for “Z15OVACD8CD4,”, “20” for “i.m. injection of 50”, “Pam3CSK4.” for “Hiltonol (right hind leg).”, “IFN-γ-producing” for “IFN-y-producing”
Mice were vaccinated three times (wk0, wk2 and wk9) by s.c. injection (right flank) of 10 nmoles of Z13OVACD8CD4, Z15OVACD8CD4 or Z18OVACD8CD4 and 20 μg of MPLA. […]
Firstly, those constructs were tested with Hiltonol adjuvant (a TLR3 agonist). […] The number of peptide-specific IFN-γ-producing cells was calculated by subtracting the number of IFN-γ-secreting cells cultured without peptide to that obtained with cells cultured with peptide. […]

| Sequence | CD4 immune response, combined with MPLA (10 nmol ZxxOVACD8CD4 s.c. wk0, wk2, wk9 and 20 μg MPLA (TLR4 agonist)) | CD4 immune response, combined with Pam3CSK4 (10 nmol ZxxOVACD8CD4 s.c. wk0, wk2, wk9 and 20 μg Pam3CSK4 (TLR2 agonist)) |
| --- | --- | --- |
| KRYKNRVASRKSRAKFKQLLQHYREVAAAKSSENDRLRLLLK [Z13] | most efficacious |  |
| REVAAAKSSENDRLRLLLK [Z18] |  | highest CD8 and CD4 immune response |
